In brackets after ≈: the same amount, converted by molar mass.
Key:
[1] = tested on: P. aeruginosa; assay: microbe, parasite or virus in culture; design: antibacterial MIC determination; conditions: Pseudomonas aeruginosa
Description: At this dose, NBD had no effect on the growth of P. aeruginosa, as shown by the fact that the growth curve of the bacteria in the presence of 5 μg/mL NBD was identical to the curve in the absence of the treatment (Figure S1).

[2] = tested on: P. aeruginosa; assay: microbe, parasite or virus in culture; design: crystal violet biofilm formation assay in 96-well plates, OD570; conditions: Pseudomonas aeruginosa, 24 h, read-out: % P. aeruginosa biofilm inhibition
Description: In 96-well polystyrene plates, the influence of NBD on biofilm growth was studied. The experiment was carried out in the manner reported by Stepanovi et al., with a few minor changes. P. aeruginosa cells were cultured in LB medium, vortexed, then diluted 1:100 in new LB media to a final concentration of 1.5 × 10^8 CFU/mL (0.5 McFarland) for biofilm development. Cells were then cultured for 24 h at 37 °C with or without NBD. Following that, non-adherent bacteria were washed away in sterile phosphate-buffered saline (PBS), and adherent bacteria were stained for 15 min with a 1% crystal violet solution. Water was used to clean the wells in order to remove any remaining stains. The absorbance of the crystal violet solution at OD570 was determined by spectrophotometric analysis. Wells with phosphate buffer-enriched media were utilized as negative controls. As a positive control, azithromycin (AZM) was used, which inhibits biofilm formation at sub-inhibitory concentrations. […] At this dose, NBD had no effect on the growth of P. aeruginosa, as shown by the fact that the growth curve of the bacteria in the presence of 5 μg/mL NBD was identical to the curve in the absence of the treatment (Figure S1).

[3] = tested on: E. coli; assay: microbe, parasite or virus in culture; design: antibacterial MIC determination; conditions: Escherichia coli
[4] = target: the molecule itself; assay: AUC; sedimentation velocity, 141,900 x g, 20 °C, 20 mM Hepes pH 7.5, 100 mM NaCl; LasR 0.5 and 1 mg/mL produced with and in the presence of 100 μM OdDHL; c(S) and c(M) distributions in SEDFIT

| Molecule | MIC [1] | inhibition at 5 µg/mL [2] | MIC [3] | stoichiometry N [4] |
| --- | --- | --- | --- | --- |
| O=c1oc2c(O)c(O)cc3c(=O)oc4c(O)c(O)cc1c4c23 [Ellagic acid] | 128 µg/mL (≈ 424 µM) | 22.8% | 128 µg/mL (≈ 424 µM) |  |
| O=C(O)c1cc(O)c(O)c(O)c1 [Gallic acid] | > 256 µg/mL | 21.4% | > 256 µg/mL |  |
| CCCCCc1cc(O)cc2c1Oc1cc(O)cc(C(=O)CCCC)c1C(=O)O2 [NBD, norlobaridone] | 128 µg/mL (≈ 321 µM) | 64.6% | 128 µg/mL (≈ 321 µM) |  |
| O=C(O)c1ccc(O)cc1 [P-hydroxy benzoic acid] | 128 µg/mL (≈ 927 µM) | 12.9% | > 256 µg/mL |  |
| CCCCCc1ccccc1O [Pentylphenol] | 256 µg/mL (≈ 1560 µM) | 11.4% | > 256 µg/mL |  |
| Oc1cc(O)cc(O)c1 [Phloroglucinol] | 64 µg/mL (≈ 507 µM) | 31.1% | 64 µg/mL (≈ 507 µM) |  |
| Oc1cccc(O)c1 [Resorcinol] | 128 µg/mL (≈ 1160 µM) | 27.7% | 128 µg/mL (≈ 1160 µM) |  |
| CC(=O)c1c(O)c(C)c(O)c(Cc2c(O)c3c(c(C(=O)/C=C/c4ccccc4)c2O)OC(C)(C)C=C3)c1O [Rottlerin] | > 256 µg/mL | 7.9% | > 256 µg/mL |  |
| LasR (Pseudomonas aeruginosa transcriptional activator protein, LuxR-type quorum sensing receptor) (natural protein, predicted molecular weight of the single chain 26.62 kD; Produced and kept with a small-molecule ligand: odDHL (dimer) or norlobaridone, NBD (monomer); also called LasR-odDHL; NBD-LasR; source: E. coli BL21 (pET23b, 1 mM IPTG, 18 °C overnight) in the presence of 100 μM OdDHL or 100 μM NBD; purified (heparin column, MonoQ, S200 size exclusion)) MALVDGFLELERSSGKLEWSAILQKMASDLGFSKILFGLLPKDSQDYENAFIVGNYPAAWREHYDRAGYARVDPTVSHCTQSVLPIFWEPSIYQTRKQHEFFEEASAAGLVYGLTMPLHGARGELGALSLSVEAENRAEANRFMESVLPTLWMLKDYALQSGAGLAFEHPVSKPVVLTSREKEVLQWCAIGKTSWEISVICNCSEANVNFHMGNIRRKFGVTSRRVAAIMAVNLGLITL |  |  |  | 2 |

— article PMC10669572, “Norlobaridone Inhibits Quorum Sensing-Dependent Biofilm Formation and Some Virulence Factors in Pseudomonas aeruginosa by Disrupting Its Transcriptional Activator Protein LasR Dimerization” (Biomolecules, 2023)
